Experimental data published in patent US11890296B2, “Anti-tumor agent containing cytarabine, anti- tumor effect enhancing agent which is used in combination with cytarabine, anti-tumor kit, and anti-tumor agent which is used in combination with cytarabine” (priority 2018, dated 2024).

Assays:
[1] = test system: human myeloid leukemia cell line MV4-11; assay: Cell proliferation test (Cell Titer-Glo), MV4-11; assay type: cell-based; details: MV4-11 cells, Ara-C alone
Experimental: (§1) The cell proliferation test was performed using human myeloid leukemia cell line U-937 (ATCC, CRL-1593.2), MOLM-13 (DSMZ, ACC 554), HL60 (ATCC, CRL-240), SKM-1 (JCRB cell bank, JCRB0118), OCI-M2 (DSMZ, ACC 619), NOMO-1 (JCRB cell bank, IFO050474), MV4-11 (ATCC, CRL-9591), THP1 (ATCC, TIB-202), and human peripheral blood mononuclear cell PBMC (CTL, CTL-UP-1). As the culture medium of U-937 cells, MOLM-13 cells, HL60 cells, SKM-1 cells, OCI-M2 cells, NOMO-1 cells, MV4-11 cells, and THP1 cells, RPMI1640 (FUJIFILM Wako Pure Chemical Corporation, 189-02025) added with 10% fetal bovine serum (Thermo Fisher Scientific, Inc., 10437-028) and 1% penicillin-streptomycin (10,000 U/mL, Thermo Fisher Scientific, Inc., 15140-122) was used. […] After culturing overnight, 5 μL of FLA3527, ASLAN003, BAY2402234, or cytarabine (Ara-C, C2035, Tokyo Chemical Industry Co., Ltd.) at the predetermined concentration was added, and 3 days later, 25 μL of Cell Titer-Glo (registered trade mark) luminescent cell viability assay (Promega Corporation, G7573) was added, and the light emission amount was measured using an Envision plate reader (PerkinElmer, Inc.). […] The proliferation inhibition concentration for each compound concentration was calculated by the following expression. […]
(§2) The CI indicating the combined effect of Ara-C and the DHODH inhibitor compound was calculated using the software CalcuSyn of Biosoft.

[2] = test system: human myeloid leukemia cell line THP1; assay: Cell proliferation test (Cell Titer-Glo), THP1; assay type: cell-based; details: THP1 cells, cytarabine alone
Experimental: as §1, §2

SMILES: Nc1ccn([C@@H]2O[C@H](CO)[C@@H](O)[C@@H]2O)c(=O)n1 [Ara-C, cytarabine]
- Ara-C sensitivity of the cell line [1]: sensitive
- cytarabine sensitivity of the cell line [2]: insensitive
